Experimental data taken from patent US8258099B2, “Pin1-modulating compounds and methods of use thereof” (Max-Planck-Gesellschaft zur Foerderung der Wissenschaften …, priority 2004, dated 2012).
Square brackets hold non-standard residues; d marks the D form. Peptide text beside a SMILES is read from it. d(pT) = C[C@H](OP(=O)(O)O)[C@@H](N)C(=O)O; 2Nal = N[C@@H](Cc1ccc2ccccc2c1)C(=O)O; Pip = O=C(O)[C@@H]1CCCCN1

Columns and labels:
X. laevis embryos = assay: Microinjection in X. laevis embryos, cell division; assay type: in vivo; details: for number of vital embryos: 5 hours
Protocol: FIG. 8 depicts the blocking of cell division by the injection of peptide 17 in X. laevis embryos. 50-300 pmol of peptide 17 or 300 pmol of its nonphosphorylated derivative (control) dissolved in 10 nl PBS buffer were microinjected in the animal half of X. laevis embryos at stage 2 of development. Embryos with large and/or apoptotic appearing cells surrounded by normally developing cells were counted after further 5 hours (stage 8-9) of development. […] Each value is the average of four independent experiments.
FIGS. 9A-F depicts phenotypic analysis of X. laevis embryos after injection of peptide 17. 300 pmol of peptide 17 or its nonphosphorylated derivative dissolved in 10 nl PBS buffer were injected in the animal half of X. laevis embryos at stage 2 of development. 1.5 hour at stage 6 (A), 2.5 hours at stage 7 (B) and 4-5 hours at stage 8-9 (C, D) after injection enlarged cells became visible. Cells that are blocked in cell division are marked with a white arrow. Controls of uninjected embryos of stage 8-9 and embryos that were injected with 300 pmol of the nonphosphorylated derivative of peptide 17 are shown in panels E and F. The site where the nonphosphorylated derivative of peptide 17 was injected is marked with a white arrow (F).
FIGS. 10A-D depict the rescue of peptide 17 caused cell division block in X. laevis embryos by hPin1 (A, B) and different hPin1 variants (C, D). FIG. 10A depicts the time course of V5-tagged hPin1 expression was analyzed by preparation of X. laevis embryo lysate 1, 2 and 4 hours after injection of 1, 2 or 3 ng of V5-tagged hPin1 mRNA. In every case, the injected volume was 10 nl. Lysates were prepared in lysis buffer containing phosphatase and protease inhibitors. Samples were separated by SDS PAGE followed by western blotting. Endogenous XlPin1 and V5-tagged hPin1 were detected using an anti hPin1 PPIase domain antiserum as primary antibody followed by incubation with a horseradish peroxidase-conjugated secondary antibody. Visualization was done using the SuperSignal® substrate. […] In every case, the whole volume of injection was 10 nl. The indicated amount of the mRNA was injected in the animal half of 30 embryos at stage 2 of development. Embryos with large and/or apoptotic appearing cells surrounded by normally developed cells were counted after additional 5 hours of development (stage 8-9). […] Each percentage of vital embryos shown in the figure is the average of four independent experiments. FIG. 10C indicates the expression of V5-tagged hPin1 variants was evaluated by preparation of embryo lysate after 4 hours of injection of the respective mRNA (2 ng) in X. laevis embryos. Lysates were prepared in lysis buffer containing phosphatase and protease inhibitors. Samples were separated using SDS PAGE followed by western blot analysis. Endogenous XlPin1 and injected V5-tagged hPin1 variants were detected using an anti hPin1 PPIase domain antiserum as primary antibody and a horseradish peroxidase-conjugated secondary antibody. Visualization was done by a chemiluminescent reaction using the SuperSignal® substrate (Pierce). FIG. 10D depicts 250 pmol of peptide 17 was coinjected with 2 ng mRNA of the indicated V5-tagged hPin1 variant (whole volume 10 nl) in the animal half of 30 X. laevis embryos at stage 2 of development. Results were analyzed as described for FIG. 10B. Each percentage of vital embryos shown in the figure is the average of four independent experiments.
Microinjection was done into the animal half of X. laevis embryos at stage 2 of development. In every case, the injection volume was 10 nl. Immunofluorescence studies of frozen X. laevis embryo sections were performed as previously described (Julius et al., 2000). Ten-micrometer cryosections of stage 8 embryos were labelled using a monoclonal anti hPin1 antibody (mouse) followed by incubation with Alexa Fluor 546™-conjugated anti mouse antibody of goat serum (Molecular Probes). […]

FKBP12 = FKBP12 (Homo sapiens, UniProt P62942); assay: Protease coupled PPIase assay, FKBP12; assay type: biochemical
Protocol: PPIase activities were monitored on a Hewlett-Packard 8452A diode array spectrophotometer according to Fischer et al., 1984 and Zhang et al., 2002. The hPar14 PPIase activity was measured with Suc-Ala-Arg-Pro-Phe-NH-Np (SEQ ID NO: 3) (final concentration 75 μM) as substrate and α-chymotrypsin (final concentration 60 μM) as isomer specific protease. PPIase activity of hCyp 18 and FKBP12 were measured using Suc-Ala-Ala-Pro-Phe-NH-Np (SEQ ID NO: 7) as substrate (final concentration 16 μM) and α-chymotrypsin (final concentration 60 μM) as isomer specific protease. PPIase activity of hPin1 was measured with Ac-Ala-Ala-Ser(PO3H2)-Pro-Arg-NH-Np (SEQ ID NO: 4) (final concentration 10 μM) as substrate and trypsin (final concentration 60 μM) as isomer specific protease. […] Measurements were monitored at 390 nm.
Data analysis was performed by single-exponential nonlinear regression using the SigmaPlot Scientific Graphing System Version 5.00 (Jandel Corp.). […] The rate constant k0 was determined in the absence of Pin1. The first order rate constants kenz was calculated from the equation kenz=kobs−k0. IC50 and Ki values were determined by fitting the first order rate constants kenz against the concentration of the inhibitory peptide by nonlinear regression according to Schutkowski et al., 1995 or a model for tight binding inhibitors (Morrison, 1969).

hPar14 = hPar14 (Homo sapiens, UniProt Q9Y237); assay: Protease coupled PPIase assay, hPar14; assay type: biochemical; details: up to 50 μM
Protocol: FIG. 6 depicts the influence of peptide 17 on the hPar14 PPIase activity. The apparent first order rate constant kobs determined for the cis to trans isomerization of the arginyl-prolyl peptide bond of the substrate Suc-Ala-Arg-Pro-Phe-NH-Np (SEQ ID NO: 3) was measured using the protease coupled PPIase assay. α-Chymotrypsin was used as isomer specific protease. As control, the nonphosphorylated derivative of peptide 17 was used.
PPIase activities were monitored on a Hewlett-Packard 8452A diode array spectrophotometer according to Fischer et al., 1984 and Zhang et al., 2002. The hPar14 PPIase activity was measured with Suc-Ala-Arg-Pro-Phe-NH-Np (SEQ ID NO: 3) (final concentration 75 μM) as substrate and α-chymotrypsin (final concentration 60 μM) as isomer specific protease. PPIase activity of hCyp 18 and FKBP12 were measured using Suc-Ala-Ala-Pro-Phe-NH-Np (SEQ ID NO: 7) as substrate (final concentration 16 μM) and α-chymotrypsin (final concentration 60 μM) as isomer specific protease. PPIase activity of hPin1 was measured with Ac-Ala-Ala-Ser(PO3H2)-Pro-Arg-NH-Np (SEQ ID NO: 4) (final concentration 10 μM) as substrate and trypsin (final concentration 60 μM) as isomer specific protease. Final concentrations of the PPIases were 1.7 μM for hPar14, 4 nM for hPin1, 7 nM for FKBP12 and 9.7 nM for hCyp18. […] Measurements were monitored at 390 nm. […]

Chain of hPar14 (Q9Y237 whole entry): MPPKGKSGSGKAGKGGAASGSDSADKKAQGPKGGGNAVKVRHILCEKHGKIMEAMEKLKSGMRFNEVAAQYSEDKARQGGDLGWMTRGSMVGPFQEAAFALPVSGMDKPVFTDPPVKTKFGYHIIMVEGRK
Chain of FKBP12 (P62942 whole entry): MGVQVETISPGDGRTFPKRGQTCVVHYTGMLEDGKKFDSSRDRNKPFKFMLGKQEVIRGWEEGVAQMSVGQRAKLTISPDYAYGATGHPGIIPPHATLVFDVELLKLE

For `CC(=O)N[C@@H](Cc1ccccc1)C(=O)N[C@@H](C(=O)N1CCCC[C@H]1C(=O)N[C@@H](Cc1ccc2ccccc2c1)C(=O)N[C@@H](CCC(N)=O)C(N)=O)[C@H](C)OP(=O)(O)O` [Peptide 17, Ac-Phe-D-Thr(PO3H2)-Pip-Nal-Gln-NH2] (Ac-F[d(pT)][Pip][2Nal]Q-NH2), which “number of vital embryos” value (X. laevis embryos; 250 pmol peptide 17, coinjection of 2 ng of V5-tagged hPin1 mRNA) is on record?
The value was “up to 73%”.

What about the “number of vital embryos” value (X. laevis embryos; 250 pmol peptide 17, without coinjection of mRNA) of the same compound?
Its value is 18%.

What about the “normal embryos after microinjection” value (X. laevis embryos; 300 pmol, stage 2 embryos, examined 5 hours after injection) of the same compound?
Its value is “very low number of normal embryos”.

And the “effect on development of the embryos” value (X. laevis embryos; microinjection at stage 2)?
Its value is “cell cycle blockage and embryonic death”.

What about the “inhibition of FKBP12” value (FKBP12) of the same compound?
The value was “no inhibition”.

And the “inhibition of hPar14 PPIase activity” value (hPar14)?
Its value is “No inhibition”.
